Laboratory results from PMC12707294 (Analytical chemistry, 2025).

Target: hu3F8 Fab
Assay type: binding

Substance: GD2 hexasaccharide [GD2os]
- Kd: 2300 ± 100 nM
